Where two headings read alike, the source gives them in different places.
Assays:
Assay type in all cases: cell-based
[1] = test system: human cervical epithelioid carcinoma (HeLa); assay: In vitro anticancer assay (MTT), HeLa; conditions: HeLa cells, 48 hrs, mean ± spread, read-out: Anti-proliferative evaluation IC50, HeLa
Procedure: (§1) The resultant tetrazolium salt was then dissolved by the addition of dimethyl sulfoxide. Color was measured spectrophotometrically in a microtiter plate reader at 570 nm and used as a relative measure of viable cell number. The number of viable cells after treatment was compared to solvent and untreated control cells and used to determine the percent of control growth as (Abtreated/Abcontrol)×100, where Ab represents the mean absorbance (n=3). […] D. Heo et al. […] (+)-camptothecin (CPT) and doxorubicin hydrochloride (Dox) were used for comparison with the compounds according to this invention.

[2] = test system: hepatocellular carcinoma (SKHep1); assay: In vitro anticancer assay (MTT), SKHep1; conditions: 48 hrs, mean ± spread, read-out: Anti-proliferative evaluation IC50, SKHep1
Procedure: as §1

[3] = test system: human stomach adenocarcinoma (AGS); assay: In vitro anticancer assay (MTT), AGS; conditions: AGS cells, 48 hrs, mean ± spread, read-out: Anti-proliferative evaluation IC50, AGS
Procedure: as §1

[4] = test system: esophageal carcinoma (CE81T); assay: In vitro anticancer assay (MTT), CE81T; conditions: CE81T cells, 48 hrs, mean ± spread, read-out: Anti-proliferative evaluation IC50, CE81T
Procedure: as §1

[5] = test system: oral squamous cell carcinoma (SAS); assay: In vitro anticancer assay (MTT), SAS; conditions: SAS cells, 48 hrs, mean ± spread, read-out: Anti-proliferative evaluation IC50, SAS
Procedure: as §1

[6] = test system: human renal clear cell carcinoma; assay: In vitro anticancer assay (MTT), RCC 768-O; conditions: RCC 768-O cells, 48 hrs, mean ± spread, read-out: Anti-proliferative evaluation IC50, RCC 768-O
Procedure: as §1

[7] = Homo sapiens, SK-HEP1, SKHep1 cells

| Structure (SMILES) | IC50 ([1]; Homo sapiens) [µM] | IC50 [2, 7] [µM] | IC50 ([3]; Homo sapiens) [µM] | IC50 [4] [µM] | IC50 [5] [µM] | IC50 ([6]; Homo sapiens) [µM] | IC50 [1] [µM] | IC50 ([2]; SKHep1 cells) [µM] | IC50 [3] [µM] | IC50 [6] [µM] |
| --- | --- | --- | --- | --- | --- | --- | --- | --- | --- | --- |
| COc1ccc2c(c1)C(=O)c1c-2c(N2CCN(CC3CO3)CC2)nc2ccccc12 (stereo not shown) [Compound 5kkk, 9-methoxy-6-[4-(oxiran-2-ylmethyl)piperazin-1-yl]-11H-indeno[1,2-c]quinolin-11-one] | 10.7 ± 1.2 | > 30 | 21.4 ± 10.1 | 0.6 | > 30 | 19.1 ± 3.1 |  |  |  |  |
| CNCC(O)CN1CCN(c2nc3ccccc3c3c2-c2ccc(OC)cc2C3=O)CC1 (stereo not shown) [Compound 5lll, 6-{4-[2-Hydroxy-3-(methylamino)propyl]piperazin-1-yl}-9-methoxy-11H-indeno[1,2-c]quinolin-11-one] | 4.6 ± 1 | 3.4 ± 1.2 | 9.6 ± 3.8 | 0.9 ± 0.3 | 7.4 ± 0.7 | 6.4 ± 0.2 |  |  |  |  |
| COc1ccc2c(c1)C(=NO)c1c-2c(N2CCNCC2)nc2ccccc12 [Compound 6p, 9-Methoxy-6-(piperazin-1-yl)-11H-indeno[1,2-c]quinolin-11-one oxime] | 2.7 ± 1.2 | 3.8 ± 1.3 | 1.7 ± 0.5 | 2.6 ± 0.9 | 6.1 ± 0.9 | 1.2 ± 0.9 |  |  |  |  |
| COc1ccc2c(c1)C(=O)c1c-2c(N2CCN(C(=O)CNCCCN(C)C)CC2)nc2ccccc12 [Compound 5pp] |  |  |  | > 30 | > 30 |  | 10.8 ± 3 | 13.1 ± 2.7 | 5.6 ± 2.2 | 10 ± 2.1 |
| COc1ccc2c(c1)C(=O)c1c-2c(N2CCN(C(=O)CCNCCN(C)C)CC2)nc2ccccc12 [Compound 5bbb, 6-{4-{3-[2-(Dimethylamino)ethylamino]propanoyl}piperazin-1-yl}-9-methoxy-11H-indeno[1,2-c]quinolin-11-one] | 4.8 ± 1.5 | 5.1 ± 1.5 | 4.9 ± 1 | 7.4 ± 2 | 8.8 ± 1 | 7 ± 1.3 |  |  |  |  |
| COc1ccc2c(c1)C(=O)c1c-2c(NCCCN(C)C)nc2ccccc12 [Compound 5i, 6-[3-(Dimethylamino)propylamino]-9-methoxy-11H-indeno[1,2-c]quinolin-11-one] | 2 ± 0.4 | 11.5 ± 5.4 | 14.3 ± 0.5 | 7.1 ± 0.3 | 5.5 ± 0.5 | > 30 |  |  |  |  |
| COc1ccc2c(c1)C(=O)c1c-2c(N2CCN(C(=O)CCO)CC2)nc2ccccc12 [Compound 5ww] |  |  |  | > 30 | > 30 |  | 10.6 ± 1.6 | 21.9 ± 6.4 | 9.5 ± 0.3 | 18.5 ± 2.1 |
| COc1ccc2c(c1)C(=NO)c1c-2c(OC)nc2ccccc12 [Compound 6e] |  |  |  | > 30 | 9.5 ± 2.1 |  | 8.4 ± 1.2 | 8.7 ± 2.1 | 6.8 ± 1.4 | > 30 |
| COc1ccc2c(c1)C(=O)c1c-2c(N2CCN(C(=O)CCN3CCOCC3)CC2)nc2ccccc12 [Compound 5hhh] |  |  |  | > 30 | > 30 |  | 14.3 ± 4.4 | 15 ± 5.9 | 12 ± 1.3 | > 30 |
| COc1ccc2c(c1)C(=O)c1c-2c(N2CCN(C(=O)CCNCCCN(C)CCCN)CC2)nc2ccccc12 [Compound 5fff] |  |  |  | > 30 | > 30 |  | > 30 | 23.5 ± 1.4 | 10.8 ± 1.9 | > 30 |
| COc1ccc2c(c1)C(=O)c1c-2c(N2CCN(C(=O)CN(C)C)CC2)nc2ccccc12 [Compound 5ll] |  |  |  | > 30 | > 30 |  | 11.8 ± 2.8 | 19.2 ± 5.4 | 8.7 ± 1.2 | 14.1 ± 3.4 |
| COc1ccc2c(c1)C(=NOCC(O)CN(C)C)c1c-2c(N2CCN(CC(O)CN(C)C)CC2)nc2ccccc12 (stereo not shown) [Compound 6z] |  |  |  | 9 ± 3.6 | 9 ± 2.7 |  | 1 ± 0.4 | 2.5 ± 1.7 | 18.6 ± 6.2 | 13.9 ± 10.5 |
| COc1ccc2c(c1)C(=NOCCCN)c1c-2c(N2CCNCC2)nc2ccccc12 [Compound 6t, 9-Methoxy-6-(piperazin-1-yl)-11H-indeno[1,2-c]quinolin-11-one O-3-aminopropyl oxime] | 0.9 ± 0.4 | 3 ± 2.2 | 5.9 ± 1.2 | 6.5 ± 0.6 | 6.3 ± 0.9 | 4.4 ± 1.4 |  |  |  |  |
| COc1ccc2c(c1)C(=O)c1c-2c(N2CCN(C(=O)CN3CCNCC3)CC2)nc2ccccc12 [Compound 5tt] |  |  |  | 7.2 ± 1.8 | 7.4 ± 1.1 |  | > 30 | 2.2 ± 1.3 | 3.4 ± 0.4 | 4 ± 1.5 |
| COc1ccc2c(c1)C(=NOCCN1CCCC1)c1c-2c(O)nc2ccccc12 [Compound 6bb, 6-hydroxy-9-methoxy-11H-indeno[1,2-c]quinolin-11-one O-2-(pyrrolidin-1-yl)ethyl oxime] | 0.2 ± 0.02 | 1.2 ± 0.3 | 10.4 ± 3 |  | 0.8 ± 0.1 | 3.7 ± 0.8 |  |  |  |  |
| COc1ccc2c(c1)C(=O)c1c-2c(N2CCNC(C)C2)nc2ccccc12 (stereo not shown) [Compound 5y] |  |  |  | 3.3 ± 2.2 | 13.4 ± 2.6 |  | 3.4 ± 1 | 2.9 ± 0.5 | 7.9 ± 1.2 | 13.6 ± 5.5 |
| COc1ccc2c(c1)C(=O)c1c-2c(N2CCN(C(=O)CNCCCN(C)CCCN)CC2)nc2ccccc12 [Compound 5ss] |  |  |  | > 30 | > 30 |  | > 30 | 21.5 ± 7 | 12.5 ± 5.2 | 10.8 ± 1.1 |
| COc1ccc2c(c1)C(=NOCCN1CCCC1)c1c-2cnc2ccccc12 [Compound 6aa, 9-methoxy-11H-indeno[1,2-c]quinolin-11-one O-2-(pyrrolidin-1-yl)ethyl oxime] | 0.4 ± 0.02 | 1.5 ± 0.3 | > 30 |  | 1.2 ± 0.2 | 5.7 ± 1 |  |  |  |  |
| COc1ccc2c(c1OC)C(=O)c1c-2c(N2CCNCC2)nc2ccc(Cl)cc12 [Compound 5ff, 2-Chloro-9,10-dimethoxy-6-(piperazin-1-yl)-11H-indeno[1,2-c]quinolin-11-one] | 4.6 ± 0.7 | 4.7 ± 2.2 | 9.5 ± 2.7 | > 30 | 11 ± 3.2 | 6.9 ± 0.3 |  |  |  |  |
| CON=C1c2ccccc2-c2c(N3CCNCC3)nc3ccccc3c21 [Compound 6j, 6-(Piperazin-1-yl)-11H-indeno[1,2-c]quinolin-11-one O-methyl oxime] | 6.2 ± 0.6 | 6.1 ± 0.8 | 8.1 ± 2.1 | 0.4 | 7.7 ± 1 | 7.7 ± 0.5 |  |  |  |  |
| ON=C1c2cc(F)ccc2-c2c(N3CCNCC3)nc3ccccc3c21 [Compound 6k] |  |  |  | 3.3 ± 1.8 | 4.4 ± 1.4 |  | 1.7 ± 0.2 | 0.9 ± 0.3 | > 30 | 2.3 ± 0.6 |
| COc1ccc2c(c1)C(=O)c1c-2c(N2CCN(C(=O)CNCCN3CCNCC3)CC2)nc2ccccc12 [Compound 5vv] |  |  |  | 8.4 ± 2 | 8.9 ± 0.1 |  | 5.4 ± 2 | 6.4 ± 0.6 | 7.3 ± 0.1 | 5.6 ± 0.9 |
| COc1ccc(Nc2nc3ccccc3c3c2-c2ccc(OC)cc2C3=O)c(OC)c1 [Compound 5q] |  |  |  | 22.7 ± 1.5 | > 30 |  | > 30 | > 30 | > 30 | > 30 |
| COc1ccc2c(c1)C(=O)c1c-2c(N2CCC(N)CC2)nc2ccccc12 [Compound 5w] |  |  |  | 1.4 ± 0.7 | 8.4 ± 2.6 |  | 1.1 ± 0.3 | 2.6 ± 0.9 | 7.4 ± 0.6 | 5.3 ± 1 |
| COc1ccc2c(c1)C(=O)c1c-2c(N2CCNCC2)nc2ccc(F)cc12 [Compound 5ee, 2-Fluoro-9-methoxy-6-(piperazin-1-yl)-11H-indeno[1,2-c]quinolin-11-one] | > 30 | 16.5 ± 5.1 | 6.5 ± 0.9 | 0.9 ± 0.6 | 6.9 ± 0.5 | 4.7 ± 3 |  |  |  |  |
| CON=C1c2cc(OC)ccc2-c2c(N3CCN(C(=O)CCN(C)C)CC3)nc3ccccc3c21 [Compound 6m] |  |  |  | 3 ± 2 | 7 ± 0.5 |  | 3.6 ± 1.6 | 5 ± 0.8 | 7.5 ± 1.1 | 5.3 ± 1.8 |
| COc1ccc2c(c1)C(=O)c1c-2c(N2CCN(C(=O)CCN3CCNCC3)CC2)nc2ccccc12 [Compound 5ggg] |  |  |  | 7.2 ± 1.5 | 7.7 ± 0.9 |  | 4.7 ± 1.4 | 4.9 ± 1.1 | 5.5 ± 0.5 | 1.5 ± 1.3 |
| O=C1c2ccccc2-c2c(NCCNCCO)nc3ccccc3c21 [Compound 5c, 6-[2-(2-Hydroxyethylamino)ethylamino]-11H-indeno[1,2-c]quinolin-11-one] | 1 ± 0.3 | 4.3 ± 1.5 | 7.9 ± 1.7 | > 30 | 7.3 ± 0.6 | 8.3 ± 0.6 |  |  |  |  |
| COc1ccc2c(c1)C(=O)c1c-2c(N2CCN(C(=O)CCNCCN)CC2)nc2ccccc12 [Compound 5zz] |  |  |  | > 30 | > 30 |  | 11.4 ± 0.4 | 19 ± 3.2 | 9 ± 2 | > 30 |
| COc1ccc2c(c1)C(=O)c1c-2c(N2CCC(N)C2)nc2ccccc12 (stereo not shown) [Compound 5v] |  |  |  | > 30 | > 30 |  | > 30 | 26.9 ± 19.5 | > 30 | > 30 |
